Measured values taken from patent US20210261539A1, “COMPOUND HAVING BET INHIBITORY ACTIVITY AND PREPARATION METHOD AND USE THEREFOR” (Shanghai Haihe Pharmaceutical Co., Ltd., priority 2018, published 2021).
pIC50: −log10 of the molar value.

System: human NMC-derived xenograft
Test: not given
Details: human NMC-derived xenograft mouse model; cited from earlier work

| SMILES | tumor squamous differentiation and growth |
| --- | --- |
| Cc1sc2c(c1C)C(c1ccc(Cl)cc1)=N[C@@H](CC(=O)OC(C)(C)C)c1nnc(C)n1-2 [JQ1] | inhibited tumor squamous differentiation and growth and caused regression |

Target: T1, BRD4 BD1 (Homo sapiens, UniProt O60885)
T1 construct: Protein BRD4 BD1 used in the assay was purchased from Active Motif (cat. 31380); purchased Active Motif 31380
Test: HTRF in vitro enzyme activity assay, inhibition of BRD4 BD1 binding to acetylated H4 peptide
Details: IC50 values of the compounds against BRD4 BD1 binding; class symbols A/B/C
In short: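 Recombinant human BRD4 BD1 (30 nM final) incubated with compound and biotinylated tetra-acetylated H4(1-21) peptide, 30 min at 37 °C; 5-point 1:5 dilution series, 0.1% DMSO final. HTRF read after 3 h at RT with SA-XL665 and Eu(K)-labelled antibody; IC50 derived.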

| pIC50 | SMILES |
| --- | --- |
| ≥ 8.00 | C[C@@H]1C(=O)N(C)c2ccc(N3C(=O)c4ccccc4C3c3cccnc3)nc2N1CCF (single isomer, unassigned) [Example A55-P2, 4-(2-fluoroethyl)-1,3-dimethyl-6-(1-oxo-3-(pyridin-3-yl)isoindolin-2-yl)-3,4-dihydropyrido [2,3-b]pyrazin-2(1H)-one] |
| ≥ 8.00 | CSc1cccc2c1C(=O)N(c1ccc3c(n1)N(C1CC1)C(C)C(=O)N3C)C2c1cccnc1 (single isomer, unassigned) [Example A65-P3, 4-cyclopropyl-1,3-dimethyl-6-(4-(methylthio)-3-oxo-1-(pyridin-3-yl)isoindolin-2-yl)-3,4-dihydropyrido[2,3-b]pyrazin-2(1H)-one] |
| ≥ 8.00 | CC1C(=O)N(C)c2ccc(N3C(=O)c4ccccc4C3c3ccc(F)cn3)nc2N1C1CC1 (single isomer, unassigned) [Example A68-P3, 4-cyclopropyl-6-(1-(5-fluoropyridin-2-yl)-3-oxoisoindolin-2-yl)-1,3-dimethyl-3,4-dihydropyrido[2,3-b]pyrazin-2(1H)-one] |
| ≥ 8.00 | Cc1ccc(-n2c3ccccc3c(=O)n2-c2ccc3c(n2)N(C2CC2)C(C)C(=O)N3C)cn1 (single isomer, unassigned) [Example A50-P4, 6-(1-(6-methyl-pyridin-3-yl)-3-oxo-1,3-dihydro-2H-indazol-2-yl)-4-cyclopropyl-1-methyl-3-methyl-3,4-dihydropyridine [2,3-b]pyrazin-2(1H)-one] |
| ≥ 8.00 | CC1C(=O)N(C)c2ccc(N3C(=O)c4c(cccc4C(C)(C)O)C3c3ccc(F)cc3)nc2N1C1CC1 (single isomer, unassigned) [Example A79-P4, 4-cyclopropyl-6-(1-(4-fluorophenyl)-4-(2-hydroxyprop-2-yl)-3-oxoisoindolin-2-yl)-1,3-dimethyl-3,4-dihydropyrido[2,3-b]pyrazin-2(1H)-one] |
| ≥ 8.00 | C[C@@H]1C(=O)N(C)c2ccc(N3C(=O)c4ccccc4C3c3ccccn3)nc2N1C (stereo partly drawn) [Example A42-P2, (3R)-1,3,4-trimethyl-6-(1-oxo-3-(pyridin-2-yl)isoindolin-2-yl)-3,4-dihydropyrido [2,3-b]pyrazin-2-(1H)-one] |
| ≥ 8.00 | CC1C(=O)N(C)c2ccc(-n3c(=O)c4ccccc4n3-c3ccc(Cl)cc3)nc2N1C1CC1 (single isomer, unassigned) [Example A12-P1, 6-(1-(4-chlorophenyl)-3-oxo-1,3-dihydro-2H-indazol-2-yl)-4-cyclopropyl-1,3-dimethyl-3,4-dihydropyrido[2,3-b]pyrazin-2(1H)-one] |
| 7.00 to 8.00 | CC1Oc2cc(N3C(=O)c4ccccc4C3c3cccnc3)cc(F)c2N(C)C1=O (single isomer, unassigned) [Example A107-P3, 1-methyl-3-methyl-6-(1-oxo-3-(pyridin-3-yl)isoindolin-2-yl)-8-fluoro-1H-benzo[2,3-B][1,4]oxazin-2(3H)-one] |
| ≥ 8.00 | C[C@@H]1C(=O)N(C)c2cnc(N3C(=O)c4c(cccc4[S+](C)[O-])C3c3cccnc3)nc2N1C (stereo partly drawn) [A102-P2/P3, (7R)-5,7,8-trimethyl-2-(4-(methylsulfinyl)-3-oxo-1-(pyridin-3-yl)isoindolin-2-yl)-7,8-dihydropteridin-6(5H)-one] |
| ≥ 8.00 | CC1C(=O)N(CF)c2ccc(N3C(=O)c4ccccc4C3c3cccnc3)nc2N1C1CC1 (centres unmarked) [Example A45-P4, 4-cyclopropyl-1-(fluoromethyl)-3-methyl-6-(1-oxo-3-(pyridin-3-yl)isoindolin-2-yl)-3,4-dihydropyrido [2,3-b]pyrazin-2(1H)-one] |
| ≥ 8.00 | CCN1C(=O)C(C)N(C2CC2)c2nc(N3C(=O)c4ccccc4C3c3cccnc3)ccc21 (centres unmarked) [Example A49-P4, 4-cyclopropyl-1-ethyl-3-methyl-6-(1-oxo-3-(pyridin-3-yl)isoindolin-2-yl)-3,4-dihydropyrido [2,3-b]pyrazin-2-(1H)-one] |
| 7.00 to 8.00 | Cc1cc(N2C(=O)CCC2c2ccccc2)nc2c1N(C)C(=O)C(C)N2C1CC1 (single isomer, unassigned) [Example A9-P1-2, 4-cyclopropyl-1,3,8-trimethyl-6-(2-oxo-5-phenylpyrrolidin-1-yl)-3,4-dihydropyrido[2,3-b]pyrazin-2(1H)-one] |
| 7.00 to 8.00 | CC1C(=O)N(C)c2ccc(N3C(=O)c4ccccc4C3c3ccc(F)cc3)nc2N1C1CCCC1 (racemic) [Example A38, 4-cyclopentyl-6-(1-(4-fluorophenyl)-3-oxoisoindolin-2-yl)-1,3-dimethyl-3,4-dihydropyrido [2,3-b]pyrazin-2(1H)-one] |
